Measurements from patent US6933298B2, “Pyridine-2,4-dicarboxylic acid diamides and pyrimidine-4,6-dicarboxylic acid diamides and the use thereof for selectively inhibiting collagenases” (Aventis Pharma Deutschland GmbH, priority 2001, dated 2005).

molecular target: T1, catalytic domain of human collagenase-3 (MMP-13) (Homo sapiens, UniProt P45452); assay: Enzymic activity of the catalytic domain of human collagenase-3 (MMP-13), fluorogenic substrate; format: biochemical; details: activated with APMA, pH 7.5, read-out: IC50 MMP13
T1 construct: Determining the enzymic activity of the catalytic domain of human collagenase-3 (MMP-13); purchased INVITEK, Berlin 30 100 803
Experimental: Determining the enzymic activity of the catalytic domain of human collagenase-3 (MMP-13).
Activation of the proenzyme:
2 parts by volume of proenzyme are incubated with 1 part by volume of APMA solution at 37° C. for 1.5 hours. The APMA solution is prepared from a 10 mmol/l solution of p-aminophenylmercuric acetate in 0.1 mmol/l NaOH by diluting it with 3 parts by volume of Tris/HCl buffer, pH 7.5 (see below). The pH is adjusted to between 7.0 and 7.5 by adding 1 mmol/l HCl.
In order to measure the enzyme activity, 10 μl of enzyme solution are incubated for 15 minutes with 10 μl of a buffered 3% (v/v) solution of dimethyl sulfoxide (reaction 1). In order to measure the enzyme inhibitor activity, 10 μl of enzyme solution are incubated with 10 μl of a buffered 3% (v/v) solution of dimethyl sulfoxide which contains the enzyme inhibitor (reaction 2).
The enzyme activity is presented as increase in extinction/minute.
The buffer solution contains 0.05% Brij (Sigma, Deisenhofen, Germany) and also 0.1 mol of Tris/HCl/l, 0.1 mol of NaCl/1 and 0.01 mol of CaCl2/l (pH=7.5).
The substrate solution contains 0.75 mmol of the fluorogenic substrate (7-methoxycoumarin-4-yl)acetyl-Pro-Leu-Gly-Leu-3-(2′,4′-dinitrophenyl)-L-2,3-diaminopropionyl-Ala-Arg-NH2/I(Bachem, Heidelberg, Germany).

Point of comparison: `O=C(NCc1ccc2c(c1)OCO2)c1cc(C(=O)NCc2ccc3c(c2)OCO3)ncn1` [Example 20], IC50 14 nM. Against it:
- O=C(NCc1cc(F)cc(F)c1)c1cc(C(=O)NCc2cc(F)cc(F)c2)ncn1 [Example 10] — 21-fold higher, 300 nM
- O=C(NCc1ccc(F)c(Cl)c1)c1cc(C(=O)NCc2ccc(F)c(Cl)c2)ncn1 [Example 2, Pyrimidine-4,6-dicarboxylic acid bis(3-chloro-4-fluorobenzylamide)] — 1.6-fold higher, 23 nM
- O=C(NCc1ccc(F)c(C(F)(F)F)c1)c1cc(C(=O)NCc2ccc(F)c(C(F)(F)F)c2)ncn1 [Example 13] — 15-fold higher, 210 nM
- O=C(NCc1ccc(F)c(F)c1)c1cc(C(=O)NCc2ccc(F)c(F)c2)ncn1 [Example 16] — 7.5-fold higher, 105 nM
- COc1ccc(CNC(=O)c2cc(C(=O)NCc3ccc(OC)cc3)ncn2)cc1 [Example 17] — 5.7-fold higher, 80 nM
- O=C(NCc1ccc(Cl)cc1)c1cc(C(=O)NCc2ccc(Cl)cc2)ncn1 [Example 3] — 400-fold higher, 5600 nM
- O=C(NCc1cccc(Cl)c1)c1ccnc(C(=O)NCc2cccc(Cl)c2)c1 [Example 12] — 19-fold higher, 260 nM
- O=C(NCc1cccc(Cl)c1)c1cc(C(=O)NCc2cccc(Cl)c2)ncn1 [Example 19] — 4.1-fold higher, 57 nM
- O=C(NCc1ccc(F)cc1)c1ccnc(C(=O)NCc2ccc(F)cc2)c1 [Example 7] — 44-fold higher, 620 nM
- O=C(NCc1cccc(OC(F)(F)F)c1)c1cc(C(=O)NCc2cccc(OC(F)(F)F)c2)ncn1 [Example 6] — 50-fold higher, 700 nM
- COc1ccc(CNC(=O)c2ccnc(C(=O)NCc3ccc(OC)cc3)c2)cc1 [Example 9] — 23-fold higher, 320 nM
- Cc1ccc(CNC(=O)c2cc(C(=O)NCc3ccc(C)cc3)ncn2)cc1 [Example 5] — 140-fold higher, 2000 nM
- Cc1cccc(CNC(=O)c2ccnc(C(=O)NCc3cccc(C)c3)c2)c1 [Example 8] — 29-fold higher, 400 nM
- O=C(NCc1ccccc1)c1ccnc(C(=O)NCc2ccccc2)c1 [Example 4] — 240-fold higher, 3400 nM
- O=C(NCc1cccc(C(F)(F)F)c1)c1cc(C(=O)NCc2cccc(C(F)(F)F)c2)ncn1 [Example 11] — 21-fold higher, 300 nM
- O=C(NCc1ccc(F)cc1)c1cc(C(=O)NCc2ccc(F)cc2)ncn1 [Example 15] — 14-fold higher, 190 nM
- COc1cccc(CNC(=O)c2cc(C(=O)NCc3cccc(OC)c3)ncn2)c1 [Example 21] — within 1.5-fold, 10 nM
- O=C(NCc1ccc2c(c1)CCO2)c1cc(C(=O)NCc2ccc3c(c2)CCO3)ncn1 [Example 22] — 1.6-fold lower, 9 nM
- O=C(NCc1cccc(F)c1)c1cc(C(=O)NCc2cccc(F)c2)ncn1 [Example 14] — 14-fold higher, 200 nM
